According to ChEMBL document CHEMBL5346893, “1,2,4-Amino-triazine derivatives as pyruvate dehydrogenase kinase inhibitors: Synthesis and pharmacological evaluation” (Eur J Med Chem, 2023):
Calls of active or inactive are those of the source. The rule behind the calls is not given here.

What was measured:
PSN1 [1] = experiment: Inhibition of PDK in human PSN1 cells expressing KRAS mutant assessed as increase in cellular oxygen consumption at IC50 incubated for 60 mins by fluorescence based analysis; format: cell-based
[2] = target: T1, [Pyruvate dehydrogenase (acetyl-transferring)] kinase isozyme 1, mitochondrial (Homo sapiens, UniProt Q15118); experiment: Inhibition of PDK1 (unknown origin) incubated for 30 mins followed by substrate addition measured after 60 mins in presence of ATP by ADP-Glo luminescent assay
T1 sequence (Q15118 whole entry): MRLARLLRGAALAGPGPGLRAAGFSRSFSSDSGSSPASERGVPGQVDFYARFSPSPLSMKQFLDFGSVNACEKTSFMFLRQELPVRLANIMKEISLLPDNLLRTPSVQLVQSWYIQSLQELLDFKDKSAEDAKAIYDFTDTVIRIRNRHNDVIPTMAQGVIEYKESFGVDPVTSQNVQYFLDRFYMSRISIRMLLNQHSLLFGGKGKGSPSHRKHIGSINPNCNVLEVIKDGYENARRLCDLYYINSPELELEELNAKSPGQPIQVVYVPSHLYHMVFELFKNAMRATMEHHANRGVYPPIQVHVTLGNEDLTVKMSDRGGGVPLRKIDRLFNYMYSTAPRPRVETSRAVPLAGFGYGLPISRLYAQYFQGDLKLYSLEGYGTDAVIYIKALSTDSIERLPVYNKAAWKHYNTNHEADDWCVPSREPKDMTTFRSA

BXPC-3 [3] = experiment: Antiproliferative activity against human BXPC-3 cells expressing wild type KRAS cultured as 3D spheroids assessed as inhibition of cell growth measured after 72 hrs by MTT assay; format: functional, cell-based; details: BXPC-3, 72 h
PSN1 [4] = experiment: Antiproliferative activity against human PSN1 cells expressing KRAS mutant cultured as 2D spheroids assessed as inhibition of cell growth measured after 72 hrs by MTT assay; format: functional, cell-based; details: PSN1, 72 h
PSN1 [5] = experiment: Downregulation of PDHA1 phosphorylation in human PSN1 cells at IC50 incubated for 24 hrs by ELISA assay; format: functional, cell-based
PSN1 [6] = experiment: Inhibition of PDK in human PSN1 cells expressing KRAS mutant assessed as decrease in lactate production levels at IC50 incubated for 60 mins by colorimetric analysis; format: cell-based
BXPC-3 [7] = experiment: Antiproliferative activity against human BXPC-3 cells expressing wild type KRAS cultured as 2D spheroids assessed as inhibition of cell growth measured after 72 hrs by MTT assay; format: functional, cell-based; details: BXPC-3, 72 h
PSN1 [8] = experiment: Antiproliferative activity against human PSN1 cells expressing KRAS mutant cultured as 3D spheroids assessed as inhibition of cell growth measured after 72 hrs by MTT assay; format: functional, cell-based; details: PSN1, 72 h
[9] = target: T1, [Pyruvate dehydrogenase (acetyl-transferring)] kinase isozyme 1, mitochondrial; experiment: Inhibition of PDK1 (unknown origin) at 1.5 uM incubated for 30 mins followed by substrate addition measured after 60 mins in presence of ATP by ADP-Glo luminescent assay relative to control; details: time 90.0 min, values are per cent of control
[10] = target: [Pyruvate dehydrogenase (acetyl-transferring)] kinase isozyme 3, mitochondrial (Homo sapiens) (UniProt Q15120); experiment: Inhibition of PDK3 (unknown origin) at 1.5 uM incubated for 30 mins followed by substrate addition measured after 60 mins in presence of ATP by ADP-Glo luminescent assay relative to control; details: time 90.0 min
Chain of [Pyruvate dehydrogenase (acetyl-transferring)] kinase isozyme 3, mitochondrial (Homo sapiens) (Q15120 whole entry, looked up): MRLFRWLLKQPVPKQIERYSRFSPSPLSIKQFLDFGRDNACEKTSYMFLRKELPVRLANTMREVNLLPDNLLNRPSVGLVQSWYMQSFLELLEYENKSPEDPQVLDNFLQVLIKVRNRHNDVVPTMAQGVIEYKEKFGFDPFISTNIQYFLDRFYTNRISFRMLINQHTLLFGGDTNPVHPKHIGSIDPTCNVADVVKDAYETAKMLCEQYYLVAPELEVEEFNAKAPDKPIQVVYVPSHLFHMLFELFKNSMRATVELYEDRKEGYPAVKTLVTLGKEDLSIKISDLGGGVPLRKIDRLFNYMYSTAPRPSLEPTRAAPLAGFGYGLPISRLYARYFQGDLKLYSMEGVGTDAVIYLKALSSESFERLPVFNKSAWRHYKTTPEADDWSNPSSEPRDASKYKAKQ

[11] = target: [Pyruvate dehydrogenase (acetyl-transferring)] kinase isozyme 2, mitochondrial (Homo sapiens) (UniProt Q15119); experiment: Inhibition of PDK2 (unknown origin) at 1.5 uM incubated for 30 mins followed by substrate addition measured after 60 mins in presence of ATP by ADP-Glo luminescent assay relative to control; details: time 90.0 min
Heat shock protein HSP90 = Heat shock protein HSP90 (Homo sapiens, UniProt P07900+P08238); experiment: Inhibition of human recombinant HSP90 at 1.5 uM incubated for 30 mins by fluorescence polarization based analysis relative to control; format: protein assay
PSN1 [12] = experiment: Induction of reactive oxygen species production in human PSN1 cells assessed as increase in cellular hydrogen peroxide formation at 5 uM by CM-H2DCFDA staining based analysis; format: functional, cell-based
PSN1 [13] = experiment: Induction of reactive oxygen species production in human PSN1 cells assessed as decrease in total cellular sulfhydryls level at IC50 incubated for 24 hrs by DTNB reagent based spectrophotometric analysis; format: functional, cell-based
[14] = target: [Pyruvate dehydrogenase (acetyl-transferring)] kinase isozyme 4, mitochondrial (Homo sapiens) (UniProt Q16654); experiment: Inhibition of PDK4 (unknown origin) at 1.5 uM incubated for 30 mins followed by substrate addition measured after 60 mins in presence of ATP by ADP-Glo luminescent assay relative to control; details: time 90.0 min
Chain of [Pyruvate dehydrogenase (acetyl-transferring)] kinase isozyme 4, mitochondrial (Homo sapiens) (Q16654 whole entry, looked up): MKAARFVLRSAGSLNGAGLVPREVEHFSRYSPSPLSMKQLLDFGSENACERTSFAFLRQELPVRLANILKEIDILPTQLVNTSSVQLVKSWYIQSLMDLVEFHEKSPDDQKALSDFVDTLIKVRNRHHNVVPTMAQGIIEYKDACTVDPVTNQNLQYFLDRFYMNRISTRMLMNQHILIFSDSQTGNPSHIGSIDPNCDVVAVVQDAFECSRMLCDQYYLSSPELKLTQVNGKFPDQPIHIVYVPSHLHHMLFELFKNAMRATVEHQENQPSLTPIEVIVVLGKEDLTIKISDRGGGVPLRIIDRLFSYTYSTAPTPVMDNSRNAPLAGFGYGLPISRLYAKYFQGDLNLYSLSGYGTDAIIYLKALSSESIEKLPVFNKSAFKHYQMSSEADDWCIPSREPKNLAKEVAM

PSN1 [15] = experiment: Induction of mitochondrial membrane potential loss in human PSN1 cells at IC50 incubated for 60 mins by fluorescence based analysis; format: functional

| Compound | inhibition (PSN1 [1]) | IC50 [2] [µM] | IC50 (BXPC-3 [3]) [µM] | IC50 (PSN1 [4]) [µM] | Activity (PSN1 [5]) | inhibition (PSN1 [6]) | IC50 (BXPC-3 [7]) [µM] | IC50 (PSN1 [8]) [µM] | residual activity [9] [%] | inhibition [10] [%] | inhibition [11] [%] | inhibition (Heat shock protein HSP90) [%] | Activity (PSN1 [12]) | Activity (PSN1 [13]) | inhibition [14] [%] | Activity (PSN1 [15]) |
| --- | --- | --- | --- | --- | --- | --- | --- | --- | --- | --- | --- | --- | --- | --- | --- | --- |
| O=C(c1ccccc1)C(Cl)Cl | Active | > 100 | 78.2 | 36.5 | Active | Active | 10.2 | 87.4 |  |  |  |  |  |  |  |  |
| COc1ccc2[nH]cc(-c3nc(N)nnc3-c3c[nH]c4ncccc34)c2c1 |  |  | 34.2 | 2.2 |  |  | 2.1 | 35.2 | 40 | 100 | 100 |  |  |  |  |  |
| Nc1nnc(-c2c[nH]c3ccccc23)c(-c2c[nH]c3ncccc23)n1 |  |  | 23.2 | 1.8 |  |  | 1.5 | 14.3 | 40 | 100 | 100 |  |  |  |  |  |
| Nc1nnc(-c2c[nH]c3ncc(Br)cc23)c(-c2c[nH]c3ccc(F)cc23)n1 |  |  | 19.7 | 2.9 |  |  | 2.5 | 28.3 | 40 | 100 | 100 |  |  |  |  |  |
| COc1ccc2[nH]cc(-c3nc(N)nnc3-c3cn(C)c4ncc(Br)cc34)c2c1 |  |  | 6.3 | 2.6 |  |  | 0.3 | 8.4 | 40 | 100 | 100 | 0 |  |  |  |  |
| Nc1nnc(-c2c[nH]c3ncccc23)c(-c2c[nH]c3ccc(Br)cc23)n1 |  |  | 16.4 | 1.6 |  |  | 1.8 | 15.1 | 40 |  | 100 |  |  |  |  |  |
| Nc1nnc(-c2c[nH]c3ccc(Br)cc23)c(-c2c[nH]c3ncc(Br)cc23)n1 |  |  | 54.5 | 1.5 |  |  | 1.4 | 21.6 | 40 |  | 100 |  |  |  |  |  |
| Cn1cc(-c2nc(N)nnc2-c2c[nH]c3ccc(F)cc23)c2cccnc21 |  |  | 22.2 | 3.2 |  |  | 2.2 | 20.3 | 40 | 100 | 100 |  |  |  |  |  |
| Cn1cc(-c2nc(N)nnc2-c2c[nH]c3ccccc23)c2cc(Br)cnc21 |  |  | 33.6 | 4.7 |  |  | 2.7 | 31.2 | 40 |  | 100 |  |  |  |  |  |
| COc1ccc2[nH]cc(-c3nc(N)nnc3-c3cn(C)c4ncccc34)c2c1 |  |  | 13.6 | 2.3 |  |  | 1.4 | 13.6 | 40 |  | 100 |  |  |  |  |  |
| Cn1cc(-c2nc(N)nnc2-c2c[nH]c3ccc(F)cc23)c2cc(Br)cnc21 | Active | 0.15 | 5 | 2.3 | Active | Active | 0.2 | 8.3 | 60 |  |  | 60 | Active | Active | 60 | Active |
| COc1ccc2[nH]cc(-c3nnc(N)nc3-c3c[nH]c4ncc(Br)cc34)c2c1 |  |  | 27.5 | 3.4 |  |  | 3.2 | 22.1 | 40 |  | 100 |  |  |  |  |  |
| Cn1cc(-c2nc(N)nnc2-c2c[nH]c3ccc(Br)cc23)c2cc(Br)cnc21 | Active | 0.06 | 6 | 1.1 | Active | Active | 0.7 | 24.2 | 0 |  | 100 | 40 | Active | Active | 0 | Active |
| Cn1cc(-c2nnc(N)nc2-c2c[nH]c3ccccc23)c2cccnc21 |  |  | 16.1 | 2.2 |  |  | 1.8 | 20.1 | 40 |  | 100 |  |  |  |  |  |
| Cn1cc(-c2nnc(N)nc2-c2c[nH]c3ccccc23)c2cc(Br)cnc21 |  |  | 34.2 | 4.6 |  |  | 3.2 | 31.8 | 40 |  | 100 |  |  |  |  |  |
| Nc1nnc(-c2c[nH]c3ccc(F)cc23)c(-c2c[nH]c3ncc(Br)cc23)n1 |  |  | 14.9 | 1.3 |  |  | 1.7 | 19.2 | 40 | 100 | 100 |  |  |  |  |  |
| Cn1cc(-c2nnc(N)nc2-c2c[nH]c3ccc(Br)cc23)c2cccnc21 |  |  | 25.9 | 2.9 |  |  | 2.3 | 20.9 | 40 | 100 | 100 |  |  |  |  |  |
| COc1ccc2[nH]cc(-c3nnc(N)nc3-c3c[nH]c4ncccc34)c2c1 |  |  |  |  |  |  |  |  | 40 |  | 100 |  |  |  |  |  |
| Nc1nnc(-c2c[nH]c3ccc(F)cc23)c(-c2c[nH]c3ncccc23)n1 |  |  | 22.6 | 1.6 |  |  | 1.2 | 22.3 | 40 |  | 100 |  |  |  |  |  |
| Nc1nnc(-c2c[nH]c3ncccc23)c(-c2c[nH]c3ccc(F)cc23)n1 |  |  | 19.7 | 3.2 |  |  | 2.6 | 20.1 | 40 |  | 100 |  |  |  |  |  |
| CCCCCC[C@H]1C(=O)O[C@H](C)[C@H](NC(=O)c2cccc(NC=O)c2O)C(=O)O[C@@H](C)[C@@H]1OC(=O)CC(C)C |  |  |  |  |  |  |  |  |  |  |  |  | Active |  |  |  |
| Cn1cc(-c2nnc(N)nc2-c2c[nH]c3ccc(F)cc23)c2cccnc21 |  |  | 14.6 | 1.6 |  |  | 1.6 | 16 | 40 | 100 | 100 |  |  |  |  |  |
| Nc1nnc(-c2c[nH]c3ccc(Br)cc23)c(-c2c[nH]c3ncccc23)n1 |  |  |  |  |  |  |  |  | 40 |  | 100 |  |  |  |  |  |
| Nc1nnc(-c2c[nH]c3ncc(Br)cc23)c(-c2c[nH]c3ccc(Br)cc23)n1 |  |  | 28.7 | 4.6 |  |  | 2.1 | 23.5 | 40 | 100 | 100 |  |  |  |  |  |
| Cn1cc(-c2nc(N)nnc2-c2c[nH]c3ccc(Br)cc23)c2cccnc21 |  |  | 19.9 | 3.6 |  |  | 2.5 | 24.1 | 40 | 100 | 100 |  |  |  |  |  |
| Cn1cc(-c2nc(N)nnc2-c2c[nH]c3ccccc23)c2cccnc21 |  |  | 15.5 | 2.1 |  |  | 1.9 | 13.2 | 40 |  | 100 |  |  |  |  |  |
| O=C(O)C(Cl)Cl [DICHLOROACETIC ACID] |  |  | > 1000 | > 1000 |  |  | > 1000 | > 1000 |  |  |  |  |  |  |  |  |
| COc1ccc2[nH]cc(-c3nc(N)nnc3-c3c[nH]c4ncc(Br)cc34)c2c1 |  |  | 31.2 | 4.7 |  |  | 4.4 | 17.2 | 40 | 100 | 100 |  |  |  |  |  |
| COc1ccc2[nH]cc(-c3nnc(N)nc3-c3cn(C)c4ncccc34)c2c1 |  |  | 10.7 | 2.1 |  |  | 1.5 | 12.2 | 40 |  | 100 |  |  |  |  |  |
